Measured values published in patent publication US11560370B1, “5-membered heteroaryl carboxamide compounds for treatment of HBV” (Assembly Biosciences, Inc., priority 2018, dated 2023).
pEC50: −log10 of the molar value.

What follows are compounds tested on HBV (assay: Viral production from HepAD38 cells, viral load by qPCR of HBV core sequence). Conditions: 5 days, supernatant HBV DNA by qPCR, read-out: Viral Load EC50 Activity range.
Type: cell-based
Protocol: Assay Measuring Activity of Test Compounds on Viral Production from HepAD38 Cells
HepAD38 cells grown in a T-150 flask (Corning, cat #: 430825) with Growth Medium (DMEM/F12 (1:1) (Hyclone, cat #: SH30023.02), 1× Pen/Strep (Invitrogen, cat #: 15140-122), 10% FBS (Tissue Culture Biologics, cat #: 101), 250 μg/mL G418 (Alfa Aesar, cat #: J62671), 1 μg/mL Tetracycline (Teknova, cat #: T3320)) were detached with 0.25% trypsin-EDTA to (Invitrogen, cat #: 25200-056). Tetracycline-free treatment medium (15 mL DMEM/F12 (1:1) 1× Pen/step, with 2% FBS, Tet-system approved (Clontech, cat #: 631106) were then added to mix, transferred into a 50 ml conical tube (Falcon, cat #: 21008-918,) and spun at 1300 rpm for 5 min. Pelleted cells were then re-suspended/washed with 50 mL of 1×DPBS (Invitrogen, cat #: 14190-136) 2 times and 50 mL treatment medium twice. HepAD38 cells were then re-suspended with 10 mL of treatment medium, syringed and counted. Wells of 96-well clear bottom TC plate (Corning, cat #: 3904,) were seeded at 50,000 cells/well in 180 μL of treatment medium, and 20 μL of either 10% DMSO (Sigma, cat #: D4540) as controls or a 10× solution of test compounds in 10% DMSO in treatment media was added for a final compound concentration starting at 10 μM, and plates were incubated in 5% CO2 incubator at 37° C. for 5 days.
Subsequently viral load production was assayed by quantitative PCR (qPCR) of the HBV core sequence. PCR reaction mixture containing forward primers HBV-f 5′-CTGTGCCTTGGGTGGCTTT-3′ (IDT DNA), Reverse primers HBV-r 5′-[…]-3′ (IDT DNA), Fluorescent TaqMan™ Probes HBV-probe 5′-FAM/AGCTCCAAA/ZEN/[…]/3IABkFQ-3′ (IDT DNA), 10 μL/well of PerfeCTa® qPCR ToughMix® (Quanta Biosciences, Cat #: 95114-05K), and 6 μL/well of DEPC water (Alfa Aesar, cat #: J62087) was prepared. […] of supernatant was added to 16 μL of the reaction mixture in a qPCR plate (Applied Biosytems, Cat #: 4309849), sealed with a film (Applied Biosystems, Cat #: 4311971), centrifuged for a few seconds, and subsequently run on an Applied Biosystems VIIA7. The PCR mixture was incubated at 45° C. for 5 min, then 95° C. for 10 min, followed by 40 cycles of 10 seconds at 95° C. and 20 seconds at 60° C. Viral load was quantified against known HBV DNA standards by using ViiA™ 7 Software. Viral load in the supernatant from wells with treated cells were compared against viral load in supernatant from DMSO control wells (>3 per plate). Cell viability assay was performed with CellTiter-Glo Luminescent Cell Viability Assay (Promega, cat #: G7573) with modification. Mixed appropriate amount of CellTiter-Glo (CTG) 1×DPBS in a 1:1 ratio, added 100 uL of the mixture to each well followed completely removal of all supernatant in each well without touching cell surface. Incubated the plate at room temperature for 10 min on an orbital shaker, and then read the plate with a plate reader (TECAN M1000 or Envision). EC50 or CC50 values were calculated through curve-fitting of the four-parameter nonlinear-logistic-regression model (GraphPad Prism or Dotmatics). CC50 values were all >10 μM.
With `COc1cc(-c2ncc[nH]2)ccc1C1CCC(c2nn(C)c(N)c2C(=O)Nc2ccc(F)c(Cl)c2)C1` (single isomer, unassigned) [AIA-352-2, 3-(3-(4-(1H-Imidazol-2-yl)-2-methoxyphenyl)cyclopentyl)-5-amino-N-(3-chloro-4-fluorophenyl)-1-methyl-1H-pyrazole-4-carboxamide] the pEC50 was > 7.00. For `Cn1cc(C2CCC(c3nn(C)c(N)c3C(=O)Nc3ccc(F)c(Cl)c3)C2)cn1` (single isomer, unassigned) [AIA-004-C, 5-Amino-N-(3-chloro-4-fluorophenyl)-1-methyl-3-(3-(1-methyl-1H-pyrazol-4-yl)cyclopentyl)-1H-pyrazole-4-carboxamide], the pEC50 was 6.30 to 7.00. `Cn1nc(C2CC3CCCC3C2)c(C(=O)Nc2ccc(F)c(Cl)c2)c1N` (centres unmarked) [AIA-232] was tested, and the pEC50 was > 7.00. Work on `COc1cc(-c2ncc[nH]2)ccc1C1CCC(c2nn(C)c(N)c2C(=O)Nc2ccc(F)c(Cl)c2)C1` (single isomer, unassigned) [AIA-352-1, 3-(3-(4-(1H-Imidazol-2-yl)-2-methoxyphenyl)cyclopentyl)-5-amino-N-(3-chloro-4-fluorophenyl)-1-methyl-1H-pyrazole-4-carboxamide] yielded a pEC50 of 5.00 to 6.30. For `Cn1nc(C2CC3CC(O)(CSCCN4CCOCC4)CC3C2)c(C(=O)Nc2ccc(F)c(Cl)c2)c1N` (centres unmarked) [AIA-284], the pEC50 was > 7.00. With `CCOC(=O)CC1CC2CC(c3nn(C)c(N)c3C(=O)Nc3ccc(F)c(Cl)c3)CC2C1` (centres unmarked) [AIA-018] the pEC50 was > 7.00. For `Cn1nc(C2CCC(c3ccccc3)C2)c(C(=O)Nc2ccc(F)c(Cl)c2)c1N` (single isomer, unassigned) [AIA-202D, 5-Amino-N-(3-chloro-4-fluorophenyl)-1-methyl-3-(3-phenylcyclopentyl)-1H-pyrazole-4-carboxamide], the pEC50 was > 7.00. `CC(C)C1(O)CC2C[C@@H](c3nn(C)c(N)c3C(=O)Nc3ccc(F)c(Cl)c3)C[C@H]2C1O` (some centres unmarked) [AIA-257-1] was tested, and the pEC50 was > 7.00. With `CCC1OC[C@]2(CC3C[C@H](c4nn(C)c(N)c4C(=O)Nc4ccc(F)c(Cl)c4)C[C@@H]3C2)O1` (some centres unmarked) [AIA-255-5] the pEC50 was > 7.00. In the case of `Cn1cc(C2CC3CC(c4nn(C)c(N)c4C(=O)Nc4ccc(F)c(Cl)c4)CC3C2)cn1` (centres unmarked) [AIA-049], the pEC50 was > 7.00. `Cn1nc(C2CC3CC(C(=O)O)CC3C2)c(C(=O)Nc2ccc(F)c(Cl)c2)c1N` (centres unmarked) [AIA-014] was tested, and the pEC50 was > 7.00. With `Cn1nc(C2CC3CSCC3C2)c(C(=O)Nc2ccc(F)c(Cl)c2)c1N` (centres unmarked) [AIA-055] the pEC50 was > 7.00. `CC(=O)NC1CC2CC(c3nn(C)c(N)c3C(=O)Nc3ccc(F)c(Cl)c3)CC2C1` (centres unmarked) [AIA-288] was tested, and the pEC50 was > 7.00. In the case of `Cn1nc(C2CC3CC(C(N)=O)CC3C2)c(C(=O)Nc2ccc(F)c(Cl)c2)c1N` (centres unmarked) [AIA-015], the pEC50 was > 7.00.

Same assay, conditions: Hepatitis B virus, HePAD38, 120 h, 5 days, supernatant HBV DNA by qPCR, read-out: Viral Load EC50 Activity range
`Cn1nc(C2CCC(c3ccccc3)C2)c(C(=O)Nc2ccc(F)c(C#N)c2)c1N` (centres unmarked) [AIA-279, 5-Amino-N-(3-cyano-4-fluorophenyl)-1-methyl-3-(3-phenylcyclopentyl)-1H-pyrazole-4-carboxamide] was tested, and the pEC50 was > 7.00. In the case of `Cn1nc(C2CC3CC(O)(CS(=O)(=O)C4CC4)CC3C2)c(C(=O)Nc2ccc(F)c(Cl)c2)c1N` (single isomer, unassigned) [AIA-252-2, 5-Amino-N-(3-chloro-4-fluorophenyl)-3-(5-((cyclopropylsulfonyl)methyl)-5-hydroxyortahydropentalen-2-yl)-1-methyl-1H-pyrazole-4-carboxamide], the pEC50 was > 7.00. For `Cn1cc(-c2ccc([C@H]3CC[C@@H](c4nn(C)c(N)c4C(=O)Nc4ccc(F)c(Cl)c4)C3)cc2)cn1` [AIA-050-A, 5-Amino-N-(3-chloro-4-fluorophenyl)-1-methyl-3-((1R,3S)-3-(4-(1-methyl-1H-pyrazol-4-yl)phenyl)cyclopentyl)-1H-pyrazole-4-carboxamide], the pEC50 was > 7.00. With `Cn1nc(C2CC3CC(N4CCNC(=O)C4)CC3C2)c(C(=O)Nc2ccc(F)c(C#N)c2)c1N` (stereo not drawn) [AIA-246, 5-Amino-N-(3-cyano-4-fluorophenyl)-1-methyl-3-(5-(3-oxopiperazin-l-yl)octahydropentalen-2-yl)-1H-pyrazole-4-carboxamide] the pEC50 was > 7.00. For `COc1ccc([C@H]2CC[C@H](c3nn(C)c(N)c3C(=O)Nc3ccc(F)c(Cl)c3)C2)cc1` [AIA-003-B, 5-amino-N-(3-chloro-4-fluorophenyl)-3-((1S,3S)-3-(4-methoxyphenyl)cyclopentyl)-1-methyl-1H-pyrazole-4-carboxamide], the pEC50 was > 7.00. `COc1ccc([C@H]2CC[C@@H](c3nn(C)c(N)c3C(=O)Nc3ccc(F)c(Cl)c3)C2)cc1` [AIA-003-A, 5-Amino-N-(3-chloro-4-fluorophenyl)-3-((1R,3S)-3-(4-methoxyphenyl)cyclopentyl)-1-methyl-1H-pyrazole-4-carboxamide] was tested, and the pEC50 was > 7.00. In the case of `CCN(CC)C1CC2CC(c3nn(C)c(N)c3C(=O)Nc3ccc(F)c(Cl)c3)CC2C1` (centres unmarked) [AIA-012, 5-Amino-N-(3-chloro-4-fluorophenyl)-3-(5-(diethylamino)octahydropentalen-2-yl)-1-methyl-1H-pyrazole-4-carboxamide], the pEC50 was 6.30 to 7.00. `Cn1nc(C2CCC(c3ccccc3Cl)C2)c(C(=O)Nc2ccc(F)c(Cl)c2)c1N` (centres unmarked) [AIA-272, 5-Amino-N-(3-chloro-4-fluorophenyl)-3-(3-(2-chlorophenyl)cyclopentyl)-1-methyl-1H-pyrazole-4-carboxamide] was tested, and the pEC50 was > 7.00. In the case of `CCSC1CC2CC(c3nn(C)c(N)c3C(=O)Nc3ccc(F)c(Cl)c3)CC2C1` (centres unmarked) [AIA-029, 5-Amino-N-(3-chloro-4-fluorophenyl)-3-(5-(ethylthio)octahydropentalen-2-yl)-1-methyl-1H-pyrazole-4-carboxamide], the pEC50 was > 7.00. `Cn1nc(C2CC3CC(O)(CS(=O)(=O)CCCN4CCCCC4)CC3C2)c(C(=O)Nc2ccc(F)c(Cl)c2)c1N` (single isomer, unassigned) [AIA-349-b, 5-Amino-N-(3-chloro-4-fluorophenyl)-3-(5-hydroxy-5-(((3-(piperidin-1-yl)propyl)sulfonyl)methyl)octahydropentalen-2-yl)-1-methyl-1H-pyrazole-4-carboxamide] gave a pEC50 of 6.30 to 7.00. With `CN(C)S(=O)(=O)CC1(O)CC2CC(c3nn(C)c(N)c3C(=O)Nc3ccc(F)c(Cl)c3)CC2C1` (centres unmarked) [AIA-265, 5-Amino-N-(3-chloro-4-fluorophenyl)-3-(5-((N,N-dimethylsulfamoyl)methyl)-5-hydroxyoctahydropentalen-2-yl)-1-methyl-1H-pyrazole-4-carboxamide] the pEC50 was > 7.00. With `COc1cccc(C2CCC(c3nn(C)c(N)c3C(=O)Nc3ccc(F)c(Cl)c3)C2)c1` (single isomer, unassigned) [AIA-276D, 5-Amino-N-(3-chloro-4-fluorophenyl)-3-(3-(3-methoxyphenyl)cyclopentyl)-1-methyl-1H-pyrazole-4-carboxamide] the pEC50 was > 7.00. Work on `COc1ccccc1C1CCC(c2nn(C)c(N)c2C(=O)Nc2ccc(F)c(Cl)c2)C1` (single isomer, unassigned) [AIA-275A, 5-Amino-N-(3-chloro-4-fluorophenyl)-3-(3-(2-methoxyphenyl)cyclopentyl)-1-methyl-1H-pyrazole-4-carboxamide] yielded a pEC50 of 6.30 to 7.00. `Cn1cnc(C2CCC(c3nn(C)c(N)c3C(=O)Nc3ccc(F)c(Cl)c3)C2)c1` (centres unmarked) [AIA-280, 5-Amino-N-(3-chloro-4-fluoro-phenyl)-1-methyl-3-[3-(1-methylimidazol-4-yl)cyclopentyl]pyrazole-4-carboxamide] showed a pEC50 of 6.30 to 7.00. `Cn1nc(C2CC3CC(OC(C)(C)C)CC3C2)c(C(=O)Nc2ccc(F)c(Cl)c2)c1N` (centres unmarked) [AIA-058, 5-Amino-3-(5-(tert-butoxy)octahydropentalen-2-yl)-N-(3-chloro-4-fluorophenyl)-1-methyl-1H-pyrazole-4-carboxamide] was tested, and the pEC50 was > 7.00.
